Measurements taken from patent US5369098A, “Hydroxymethyl cyclobutyl purines” (E. R. Squibb & Sons, Inc., priority 1989, dated 1994).

Legend:
Format in all cases: cell-based
[1] = system: VZV (varicella zoster virus, strain ELLEN); assay: VZV antiviral assay (plaque reduction in WI-38 cell monolayers); conditions: Human alphaherpesvirus 3; WI-38 cells; plaque reduction of at least 50%; 6-7 days at 37° C.; read-out: ID50 for VZV
Experimental: (§1) Assays were performed in cell culture systems to determine the concentrations of compounds that are effective in preventing several kinds of viral infections. HSV-1 (herpes simplex virus type 1, strain Schooler), HSV-2 (herpes simplex virus type 2, strain 186), VZV (varicella zoster virus, strain ELLEN), MuLV (murine leukemia virus, strain CAS), HIV (human immunodeficiency virus, strain HTLV-IIIB). Cell Culture Assays: HSV-1, HSV-2, and VZV antiviral assays: Virus was adsorbed to WI-38 cell culture monolayers in 6 well culture plates (Costar, Cambridge, Mass.) for 1 hour prior to addition of maintenance medium containing duplicate dilutions of the test compound. Inhibition of plaque development was evaluated on fixed and stained monolayers after 4 days incubation at 37° C. for HSV-1 and HSV-2 and after 6-7 days incubation at 37° C. for VZV. ID50 values were determined from the drug concentration which conferred at least a 50% plaque reduction compared to virus controls.

[2] = system: HSV-1 (herpes simplex virus type 1, strain Schooler); assay: HSV-1 antiviral assay (plaque reduction in WI-38 cell monolayers); conditions: Human alphaherpesvirus 1, 96 h; WI-38 cells; plaque reduction of at least 50%; 4 days at 37° C.; read-out: ID50 for HSV-1
Experimental: as §1

[3] = system: MuLV (murine leukemia virus, strain CAS); assay: MuLV antiviral assay (syncytial plaques, SC-1 cells / XC cells); conditions: SC1, XC cell overlay, syncytial plaques counted, read-out: ID50 for MuLV
Experimental: Assays were performed in cell culture systems to determine the concentrations of compounds that are effective in preventing several kinds of viral infections.
HSV-1 (herpes simplex virus type 1, strain Schooler), HSV-2 (herpes simplex virus type 2, strain 186), VZV (varicella zoster virus, strain ELLEN), MuLV (murine leukemia virus, strain CAS), HIV (human immunodeficiency virus, strain HTLV-IIIB). Cell Culture Assays:
MuLV antiviral assay: Antiviral assays using MuLV were performed with some modification, as described by Rowe et al. and Shannon et al.. SC-1 cells were planted at approximately 2×10^5 cell per well in 6 well plates. After overnight incubation at 37° C., the cell cultures were sensitized with DEAE-Dextran for one hour at 37° C., rinsed and inoculated with MuLV. Cultures were re-fed with growth medium containing different concentrations of the test compound. After three more days at 37° C., cultures were re-fed with fresh medium plus test compounds and incubated at 37° C. for an additional 3 days. Cultures were then washed to remove medium, ultraviolet light irradiated, and planted with approximately 5×10^5 XC cells per well in cell growth medium containing the appropriate concentration of the test compound. […] Finally the cultures were rinsed, stained and syncytial plaques were counted. […]

[4] = system: HIV (human immunodeficiency virus, strain HTLV-IIIB); assay: HIV antiviral assay (reduction of viral cytopathic effect in CEM cells, XTT-PMS); conditions: Human immunodeficiency virus 1, IIIB, CCRF-CEM, 168 h, minimum drug concentration that inhibits CPE by 50%, 7 days at 37° C., read-out: ID50 for HIV
Experimental: Assays were performed in cell culture systems to determine the concentrations of compounds that are effective in preventing several kinds of viral infections. HSV-1 (herpes simplex virus type 1, strain Schooler), HSV-2 (herpes simplex virus type 2, strain 186), VZV (varicella zoster virus, strain ELLEN), MuLV (murine leukemia virus, strain CAS), HIV (human immunodeficiency virus, strain HTLV-IIIB). Cell Culture Assays: HIV antiviral assay: Suspensions of CEM cells (P. L. Nara, et. al., Nature 332, 469(1988)) were infected at a multiplicity of infection of 0.12 TCID50 /cell with HIV (strain HTLV-III B). […] Following incubation, viable cell numbers were counted in each well using a colorimetric assay following incubation of cells with XTT-PMS solution (XTT tetrazolium reagent plus phenazine methosulfate, PMS). Percent reduction of viral cytopathic effect (CPE) in drug treated compared to untreated virus infected cells, and percent reduction of cell viability in drug treated uninfected cells compared to untreated controls were calculated and plotted versus the drug concentrations tested. […]

[5] = Reduction of viability of uninfected CEM cells (XTT-PMS); conditions: human, footnotes *** and **** to HIV, 7 days, read-out: Minimum cytotoxic drug concentration that reduces cell viability by 50%
Experimental: HIV antiviral assay: Suspensions of CEM cells (P. L. Nara, et. al., Nature 332, 469(1988)) were infected at a multiplicity of infection of 0.12 TCID50 /cell with HIV (strain HTLV-III B). After adsorption for 1-2 hours at 37° C., infected cells were diluted in growth medium (RPMI 1640 containing the antibiotics penicillin plus streptomycin and 10% fetal calf serum) to give a final cell concentration of 1×10^4 viable cells/culture well in the presence of serial dilutions of the test compound, starting at 100 μg/ml. Triplicate samples at each drug concentration were used. Cultures of uninfected CEM cells were similarly prepared and incubated with serial dilutions of test compound in duplicate. All assays were performed in 96 well disposable cell culture plates. Untreated (infected and uninfected) cells were included as controls. […] Following incubation, viable cell numbers were counted in each well using a colorimetric assay following incubation of cells with XTT-PMS solution (XTT tetrazolium reagent plus phenazine methosulfate, PMS). Percent reduction of viral cytopathic effect (CPE) in drug treated compared to untreated virus infected cells, and percent reduction of cell viability in drug treated uninfected cells compared to untreated controls were calculated and plotted versus the drug concentrations tested. […]

[6] = system: HSV-2 (herpes simplex virus type 2, strain 186); assay: HSV-2 antiviral assay (plaque reduction in WI-38 cell monolayers); conditions: Human alphaherpesvirus 2, 96 h; WI-38 cells; plaque reduction of at least 50%; 4 days at 37° C.; read-out: ID50 for HSV-2
Experimental: as §1

[7] = Cytotoxicity by microscopic examination of the cell sheet; conditions: human, WI-38 cells

SMILES: Nc1nc2c(ncn2[C@H]2C[C@@H](CO)C2)c(=O)[nH]1 [Example 1, (cis)-2-amino-1,9-dihydro-9-[3-(hydroxymethyl)cyclobutyl]-6H-purin-6-one]
- IC50 [1]: 21 µM
- IC50 [2]: 9 to 21 µM
- IC50 [3]: 43 to 106 µM
- IC50 [4]: 230 µM
- CC50 at 168 h [5]: > 425 µM
- IC50 [6]: 9 to 21 µM

SMILES: Nc1ncnc2c1ncn2[C@H]1C[C@@H](CO)C1 [Example 2, (cis)-3-(6-Amino-9H-purin-9-yl)cyclobutanemethanol]
- MCC at 96 h ([7]; footnote * to HSV-1 and HSV-2, 4 days, read-out: Cytotoxic concentration by microscopic examination of the cell sheet (HSV-1 and HSV-2 assays)): 456 µM
- MCC ([7]; footnote ** to VZV, 6-7 days, read-out: Cytotoxic concentration by microscopic examination of the cell sheet (VZV assay)): 228 µM
- IC50 [1]: > 114 µM
- IC50 [2]: 456 µM
- IC50 [3]: 23 to 46 µM
- IC50 [4]: 301 µM
- CC50 at 168 h [5]: > 456 µM
- IC50 [6]: 456 µM
